The values below come from EP2790511B1 (Merck Sharp & Dohme Corp., priority 2011, dated 2013).

In this assay the target is T1, hROMK (hKir1.1) (Homo sapiens, UniProt P48048).
T1 construct: expressed in transfected cells
T1 sequence (P48048 1-391): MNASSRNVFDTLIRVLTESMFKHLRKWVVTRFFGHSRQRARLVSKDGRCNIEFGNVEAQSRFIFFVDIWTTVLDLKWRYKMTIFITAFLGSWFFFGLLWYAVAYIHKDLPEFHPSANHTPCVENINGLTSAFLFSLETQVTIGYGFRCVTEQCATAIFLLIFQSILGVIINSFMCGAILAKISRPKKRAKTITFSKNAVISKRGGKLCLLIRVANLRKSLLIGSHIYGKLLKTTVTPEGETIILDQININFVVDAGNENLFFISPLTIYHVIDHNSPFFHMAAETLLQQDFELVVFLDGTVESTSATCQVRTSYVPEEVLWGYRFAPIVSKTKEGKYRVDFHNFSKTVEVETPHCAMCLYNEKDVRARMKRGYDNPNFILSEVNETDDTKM
Kind of assay: Thallium Flux Assay. The format is cell-based. The method, boiled down: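 HEK293 cells stably expressing hROMK, loaded with FluxOR dye 90 min at ambient temperature, then compound 30 min with 0.3 mM ouabain in probenecid buffer pH 7.4.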

Where [1] appears, read: HEK293 cells stably expressing hROMK (hKir1.1), FLIPR-Tetra, read-out: Thallium Flux IC50.

Read-outs that look alike come from different tables or passages of the source.

Regarding `Cc1c([C@H]2CN3CCN(C(=O)Cc4cnc(-n5cnnn5)cn4)C[C@H]3CO2)ccc(F)c1C#N` [Example 76, 6-fluoro-2-methyl-3-[(3S,9aS)-8-{[5-(1H-tetrazol-1-yl)pyrazin-2-yl]acetyl}octahydropyrazino[2,1-c][1,4]oxazin-3-yl]benzonitrile], half-maximal inhibition (Thallium Flux IC50) (IC50) was put at 0.15 µM.

For `Cc1nc(-n2cnnn2)ccc1CC(=O)N1CCN2C[C@@H](c3ccc(F)c(C#N)c3C)OC[C@@H]2C1` [Example 77, 6-fluoro-2-methyl-3-[(3R,9aS)-8-{[2-methyl-6-(1H-tetrazol-1-vl)pvridin-3-yl]acetyl}octahydropyrazino[2,1-c][1,4]oxazin-3-yl]benzonitrile], the IC50 (as a rule, the midpoint of a concentration-inhibition curve) under setting [1] stood at 0.1 µM.

Regarding `O=C1OCCc2cc([C@@H]3CN4CCN(C(=O)Cc5cnc(-n6cnnn6)cn5)C[C@H]4CO3)ccc21` [Example 80, 6-[(3R,9aS)-8-{[5-(1H-tetrazol-1-yl)pyrazin-2-yl]acetyl}octahydropyrazino[2,1-c][1,4]oxazin-3-yl]-3,4-dihydro-1H-isochromen-1-one], the IC50 under setting [1] came out at 0.5 µM.

In turn, `N#Cc1cc([C@@H]2CN3CCN(C(=O)Cc4ccc(-n5cnnn5)nc4)C[C@H]3CO2)c(F)cc1F` [Example 81, 2,4-difluoro-5-[(3R,9aS)-8-{[6-(1H-tetrazol-1-yl)pyridin-3-yl]acetyl}octahydropyrazino[2,1-c][1,4]oxazin-3-yl]benzonitrile] displayed an IC50 (Thallium Flux IC50) of 0.16 µM.

For the compound `N#Cc1cc([C@@H]2CN3CCN(C(=O)Cc4ccc(-n5cnnn5)cn4)C[C@H]3CO2)c(F)cc1F` [Example 82, 2,4-difluoro-5-[(3R,9aS)-8-{[5-(1H-tetrazol-1-yl)pyridin-2-yl]acetyl}octahydropyrazino[2,1-c][1,4]oxazin-3-yl]benzonitrile], the IC50 under setting [1] was determined as 0.34 µM.

As for `Cc1c([C@H]2CN3CCN(C(=O)Cc4cnc(-n5cnnn5)cn4)C[C@H]3CO2)ccc2c1COC2=O` [Example 83], the IC50 (Thallium Flux IC50) turned out to be 0.16 µM.

Where the note is “Thallium Flux IC50”, `Cc1cc(-n2cnnn2)cnc1CC(=O)N1CCN2C[C@@H](c3ccc(F)c(C#N)c3C)OC[C@@H]2C1` [Example 84, 6-fluoro-2-methyl-3-[(3R,9aS)-8-{[3-methyl-5-(1H-tetrazol-1-vl)pvridin-2-yl]acetyl}octahydropyrazino[2,1-c][1,4]oxazin-3-yl]benzonitrile] returned a half-inhibitory concentration (IC50) of 0.23 µM.

Compound `Cc1cc(-n2cnnn2)cnc1CC(=O)N1CCN2C[C@H](c3ccc(F)c(C#N)c3C)OC[C@@H]2C1` [Example 85, 6-fluoro-2-methyl-3-[(3S,9aS)-8-{[3-methyl-5-(1H-tetrazol-1-vl)pvridin-2-yl]acetyl}octahydropyrazino[2,1-c][1,4]oxazin-3-yl]benzonitrile] returned an IC50 (Thallium Flux IC50) of 0.24 µM.

As for `N#Cc1c(F)ccc([C@H]2CN3CCN(C(=O)Cc4ccc(-n5cnnn5)cn4)C[C@H]3CO2)c1F` [Example 86], under setting [1], the IC50 is 0.29 µM.

Take `N#Cc1c(F)ccc([C@H]2CN3CCN(C(=O)Cc4ccc(-n5cnnn5)nc4)C[C@@H]3CO2)c1F` [Example 87, 2,6-difluoro-3-[(3S,9aR)-8-{[6-(1H-tetrazol-1-yl)pyridin-3-yl]acetyl}octahydropyrazino[2,1-c][1,4]oxazin-3-yl]benzonitrile]: under “Thallium Flux IC50”, the IC50 was found to be 0.22 µM.

Under “Thallium Flux IC50”, `N#Cc1c(F)ccc([C@@H]2CN3CCN(C(=O)Cc4ccc(-n5cnnn5)nc4)C[C@@H]3CO2)c1F` [Example 88, 2,6-difluoro-3-[(3R,9aR)-8-{[6-(1H-tetrazol-1-yl)pyridin-3-yl]acetyl}octahydropyrazino[2,1-c][1,4]oxazin-3-yl]benzonitrile] came in with a half-maximal inhibitory concentration (IC50) of 0.09 µM.

On to `Cc1c(C#N)cccc1[C@H]1CN2CCN(C(=O)Cc3ccc(-n4cnnn4)nc3)C[C@H]2CO1` [Example 90, 2-methyl-3-[(3S,9aS)-8-{[6-(1H-tetrazol-1-yl)pyridin-3-yl]acetyl}octahydropyrazino[2,1-c][1,4]oxazin-3-yl]benzonitrile], for which the IC50 (Thallium Flux IC50) was 0.13 µM.

Consider `Cc1c(C#N)cccc1[C@@H]1CN2CCN(C(=O)Cc3ccc(-n4cnnn4)nc3)C[C@H]2CO1` [Example 91, 2-methyl-3-[(3R,9aS)-8-{[6-(1H-tetrazol-1-yl)pyridin-3-yl]acetyl}octahydropyrazino[2,1-c][1,4]oxazin-3-yl]benzonitrile], for which, under “Thallium Flux IC50”, the IC50 is 0.06 µM.

On to `Cc1nc(-n2cnnn2)ccc1CC(=O)N1CCN2C[C@H](c3cccc(C#N)c3C)OC[C@@H]2C1` [Example 92, 2-methyl-3-[(3S,9aS)-8-{[2-methyl-6-(1H-tetrazol-1-yl)pyridin-3-yl]acetyl}octahydropyrazino[2,1-c][1,4]oxazin-3-yl]benzonitrile], for which the IC50 (Thallium Flux IC50) was 0.2 µM.

In turn, `Cc1c([C@H]2CN3CCN(C(=O)Cc4cccc(-n5cnnn5)n4)C[C@H]3CO2)ccc(F)c1C#N` [Example 97, 6-fluoro-2-methyl-3-[(3S,9aS)-8-{[6-(1H-tetrazol-1-yl)pyridin-2-yl]acetyl}octahydropyrazino[2,1-c][1,4]oxazin-3-yl]benzonitrile] returned an IC50 (Thallium Flux IC50) of 0.25 µM.

In the case of `Cc1c([C@@H]2CN3CCN(C(=O)Cc4cccc(-n5cnnn5)n4)C[C@H]3CO2)ccc(F)c1C#N` [Example 98, 6-fluoro-2-methyl-3-[(3R,9aS)-8-{[6-(1H-tetrazol-1-yl)pyridin-2-yl]acetyl}octahydropyrazino[2,1-c][1,4]oxazin-3-yl]benzonitrile], under setting [1], the 50% inhibitory concentration (IC50) was 0.56 µM.

For `Cc1c([C@@H]2CN3CCN(C(=O)Cc4ccnc(-n5cnnn5)c4)C[C@H]3CO2)ccc(F)c1C#N` [Example 99, 6-fluoro-2-methyl-3-[(3R,9aS)-8-{[2-(1H-tetrazol-1-yl)pyridin-4-yl]acetyl}octahydropyrazino[2,1-c][1,4]oxazin-3-yl]benzonitrile], under setting [1], the IC50 is 0.34 µM.

Regarding `Cc1c([C@H]2CN3CCN(C(=O)Cc4ccnc(-n5cnnn5)c4)C[C@H]3CO2)ccc(F)c1C#N` [Example 100], the IC50 under setting [1] is 0.19 µM.

Consider `Cc1c([C@H]2CN3CCN(C(=O)Cc4cncc(-n5cnnn5)c4)C[C@H]3CO2)ccc(F)c1C#N` [Example 101, 6-fluoro-2-methyl-3-[(3S,9aS)-8-{[5-(1H-tetrazol-1-yl)pyridin-3-y]acetyl}octahydropyrazino[2,1-c][1,4]oxazin-3-yl]benzonitrile], for which the IC50 under setting [1] worked out at 0.18 µM.

With `Cc1c([C@@H]2CN3CCN(C(=O)Cc4ccc(-n5cnnn5)nc4)C[C@@H]3CO2)ccc(F)c1C#N` [Example 102, 6-fluoro-2-methyl-3-[(3R,9aR)-8-{[6-(1H-tetrazol-1-yl)pyridin-3-yl]acetyl}octahydropyrazino[2,1-c][1,4]oxazin-3-yl]benzonitrile], for the setting “Thallium Flux IC50”, the IC50 is 0.15 µM.

As to `O=C(Cc1ccc(-n2cnnn2)nc1)N1CCN2C[C@@H](c3cccc(-n4cnnn4)c3)OC[C@@H]2C1` [Example 103, (3R,9aS)-3-[3-(1H-tetrazol-1-yl)phenyl]-8-{[6-(1H-tetrazol-1-vl)pvridin-3-yl]acetyl}octahydropyrazino[2,1-c][1,4]oxazine], under setting [1], the IC50 was determined as 0.34 µM.

With `Cc1c([C@@H]2CN3CCN(C(=O)Cc4ccc(-n5cnnn5)nc4)C[C@H]3CO2)cccc1-n1cnnn1` [Example 104, (3R,9aS)-3-[2-methyl-3-(1H-tetrazol-1-yl)phenyl]-8-{[6-(1H-tetrazol-1-yl)pyridin-3-yl]acetyl}octahydropyrazino[2,1-c][1,4]oxazine], under setting [1], the IC50 turned out to be 0.48 µM.
